According to ChEMBL document CHEMBL1201862, “PubChem BioAssay data set” (2004):
Active and inactive are the calls of the source.

Columns and labels:
[1] = HEK293 Cytotoxicity Assay Measured in Cell-Based System Using Plate Reader - 7071-01_Inhibitor_Dose_CherryPick_Activity_Set2.; type: functional
[2] = test system: HEK293; assay: HEK293T cell cytotoxicity, dose response, cytotoxicity control, ATP luminescence, cherry-pick samples (AID 687005); type: functional, cell-based; settings: Homo sapiens;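 note: cells exposed to compound for 48 hours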
[3] = IGROV1 ovarian cancer cell cytotoxicity, dose response, PAX8 inhibitor project, plate reader, dry powder samples (AID 743043); type: functional, cell-based; settings: IGROV-1
[4] = NIH:OVCAR-3 ovarian cancer cell cytotoxicity, dose response, PAX8 inhibitor project, plate reader, dry powder samples (AID 743044); type: functional, cell-based
[5] = molecular target: Paired box protein Pax-8 (Homo sapiens, UniProt Q06710); assay: inhibitors of PAX8-driven TPO luciferase reporter, dose response, RMG-I cells, cherry-pick (AID 687027); type: functional, cell-based;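 note: luciferase reporter driven by Pax8 target thyroperoxidase promoter measured by SteadyGlo luminescence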
[6] = cytotoxicity in OVCAR8 ovarian cancer cells, dose response, PAX8 project, cell-based, plate reader, dry powder samples (AID 743197); type: functional; settings: OVCAR-8
[7] = IOSE-T80 ovarian epithelial cell cytotoxicity, dose response, cytotoxicity control for PAX8 inhibitor project, plate reader, dry powder samples (AID 743045); type: functional, cell-based
[8] = A2780 ovarian cancer cell cytotoxicity, dose response, cytotoxicity control, plate reader, dry powder samples (AID 743046); type: functional, cell-based
[9] = cells; settings: A549
[10] = HepG2 cell cytotoxicity, dose response, cytotoxicity control, ATP luminescence, cherry-pick, set 6 (AID 1053125); type: functional, cell-based
[11] = cells; settings: HEK293
[12] = A Cell-Based Confirmatory Screen for Compounds that Inhibit VEEV, TC-83 (5).; type: functional
[13] = A Cell-Based Confirmatory Screen for Compounds that Inhibit VEEV TC-83 (4).; type: functional
[14] = A Cell-Based Confirmatory Screen for Compounds that Inhibit VEEV, TC-83 (8).; type: functional
[15] = molecular target: Metabotropic glutamate receptor 3 (Rattus norvegicus, UniProt P31422); assay: mGlu3 negative allosteric modulator potency, dose response, HEK/GIRK cells, thallium flux, rat (AID 651839); type: functional
[16] = molecular target: T1, Oxysterols receptor LXR-beta (Homo sapiens, UniProt P55055); type: functional, cell-based;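 note: agonist activity at LXR measured by a cell-based luminescence readout across a dose range, run as a counterscreen for daf-12 agonists; HEK293 cells with Gal4-LXR fusion and GAL4-driven luciferase reporter; potency for activation of Gal4-LXR reporter so compounds are agonists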
T1 sequence (P55055 whole entry): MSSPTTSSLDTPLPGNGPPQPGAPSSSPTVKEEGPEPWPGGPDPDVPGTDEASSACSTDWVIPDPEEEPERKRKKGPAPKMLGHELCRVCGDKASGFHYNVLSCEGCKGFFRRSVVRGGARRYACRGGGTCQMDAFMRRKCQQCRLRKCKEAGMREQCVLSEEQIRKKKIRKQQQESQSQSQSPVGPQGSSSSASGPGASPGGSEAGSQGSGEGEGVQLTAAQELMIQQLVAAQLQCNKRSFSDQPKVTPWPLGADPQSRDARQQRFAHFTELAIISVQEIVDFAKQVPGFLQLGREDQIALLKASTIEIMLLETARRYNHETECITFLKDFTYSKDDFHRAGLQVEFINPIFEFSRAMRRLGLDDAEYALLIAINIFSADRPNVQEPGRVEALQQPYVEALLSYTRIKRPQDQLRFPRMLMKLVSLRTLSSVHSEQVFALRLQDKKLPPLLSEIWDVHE

Chain of Paired box protein Pax-8 (Q06710 whole entry): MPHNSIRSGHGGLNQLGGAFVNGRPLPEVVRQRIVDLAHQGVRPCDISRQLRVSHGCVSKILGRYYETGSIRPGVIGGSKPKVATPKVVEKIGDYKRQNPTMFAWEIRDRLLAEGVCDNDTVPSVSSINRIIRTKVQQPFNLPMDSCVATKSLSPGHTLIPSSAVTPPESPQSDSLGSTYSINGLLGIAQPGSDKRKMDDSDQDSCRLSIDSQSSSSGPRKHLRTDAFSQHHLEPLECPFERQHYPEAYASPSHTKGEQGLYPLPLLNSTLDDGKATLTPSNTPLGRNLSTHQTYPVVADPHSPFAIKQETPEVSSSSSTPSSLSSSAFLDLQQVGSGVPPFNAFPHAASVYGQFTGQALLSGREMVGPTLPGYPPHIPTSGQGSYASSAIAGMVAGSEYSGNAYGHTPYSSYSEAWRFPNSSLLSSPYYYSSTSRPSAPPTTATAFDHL
Chain of Metabotropic glutamate receptor 3 (P31422 whole entry, the tested form may be a part): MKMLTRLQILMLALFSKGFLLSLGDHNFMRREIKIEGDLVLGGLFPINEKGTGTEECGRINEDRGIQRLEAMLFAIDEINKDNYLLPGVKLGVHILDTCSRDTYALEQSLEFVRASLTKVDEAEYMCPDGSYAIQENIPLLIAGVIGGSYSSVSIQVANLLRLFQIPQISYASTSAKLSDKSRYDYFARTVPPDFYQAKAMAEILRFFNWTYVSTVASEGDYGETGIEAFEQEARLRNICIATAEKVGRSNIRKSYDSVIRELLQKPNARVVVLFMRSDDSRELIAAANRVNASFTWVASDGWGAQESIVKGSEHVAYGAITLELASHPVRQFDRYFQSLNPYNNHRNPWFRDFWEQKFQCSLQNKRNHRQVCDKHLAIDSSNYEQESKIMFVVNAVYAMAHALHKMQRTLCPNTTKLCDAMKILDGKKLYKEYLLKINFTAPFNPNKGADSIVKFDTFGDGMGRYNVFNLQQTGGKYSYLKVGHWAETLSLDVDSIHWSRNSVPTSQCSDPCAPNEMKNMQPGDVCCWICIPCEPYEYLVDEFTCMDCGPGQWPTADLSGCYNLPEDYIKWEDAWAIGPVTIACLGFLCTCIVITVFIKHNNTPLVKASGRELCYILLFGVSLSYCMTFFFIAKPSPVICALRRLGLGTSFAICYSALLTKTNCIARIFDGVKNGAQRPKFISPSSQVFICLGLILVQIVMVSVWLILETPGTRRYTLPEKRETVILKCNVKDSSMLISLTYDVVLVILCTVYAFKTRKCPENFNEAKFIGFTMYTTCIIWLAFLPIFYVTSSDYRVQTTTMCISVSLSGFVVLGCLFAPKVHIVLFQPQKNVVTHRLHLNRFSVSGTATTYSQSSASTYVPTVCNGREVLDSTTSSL

Cc1noc(C)c1NC(=O)N(C)C[C@@H]1Oc2ccc(NC(=O)NC(C)C)cc2CC(=O)N([C@H](C)CO)C[C@H]1C
AC50 [1]: 1.61 µM (active)
AC50 [2]: 1.61 µM (active)

Cc1ccc(S(=O)(=O)N(C)C[C@@H]2Oc3ccc(NC(=O)Nc4ccc(C(F)(F)F)cc4)cc3CC(=O)N([C@H](C)CO)C[C@@H]2C)cc1
AC50 [3]: 10.1 µM (active)
AC50 [4]: 3.11 µM (active)
AC50 [5]: 3.06 µM (active)
AC50 [6]: 14.3 µM (active)
AC50 [7]: 9.76 µM (active)
AC50 [8]: 20.7 µM (active)

O=c1oc2cc(O)ccc2cc1-c1nc2ccccc2o1
AC50 [9]: > 52 µM (inactive)
AC50 [10]: > 52 µM (inactive)
AC50 [11]: 26.6 µM (active)

O=c1c2cc([N+](=O)[O-])ccc2nc(CN2CCNCC2)n1-c1ccccc1F
IC50 [12]: < 230 nM (active)
IC50 [13]: 73 nM (active)
IC50 [14]: < 198 nM (active)

COc1ccc(OC)c(-c2ccc3cc(C(=O)N4CCCC(CO)C4)ccc3c2)c1 (stereo unspecified)
IC50 [15]: 9.16 µM (active)

Nc1ncc(Br)cc1/N=C/c1ccccc1
EC50 [16]: > 67.5 µM (inactive)
